From patent US10703748B2, “Diazanaphthalen-3-yl carboxamides and preparation and use thereof” (Samumed, LLC, priority 2017, dated 2020)
Where two headings read alike, the source gives them in different places.

Experiments:
[1] = tested on: α-smooth muscle actin (aSMA) positive LL29 cells; test: Inhibition of the fibrotic process: αSMA staining in TGF-β1 treated LL29 fibroblasts from IPF patients; conditions: Homo sapiens, Fibroblast; for EC50: 96 h; for inhibition at 10 µM: read-out: percentage in parentheses after EC50 >10
[2] = tested on: IL-6; test: IL-6 inhibition in LPS-stimulated human peripheral blood mononuclear cells (HTRF); conditions: Homo sapiens, PBMC; for EC50: 22 h; for inhibition at 10 µM: read-out: percentage in parentheses after EC50 >10
[3] = tested on: secreted cytokines TNFα, IL-6 and KC-GRO; test: Secreted cytokines in Lipopolysaccharide-stimulated BV-2 cells (Table 9 does not say which cytokine); assay type: cell-based, mouse; conditions: Mus musculus, BV-2, 5 h
[4] = target: GSK3β kinase (Homo sapiens, UniProt P49841); test: GSK3β kinase activity (Ser/Thr 09 peptide Z-lyte FRET assay); assay type: biochemical
[5] = tested on: Wnt-responsive Sp5-Luc reporter in SW480 colon carcinoma cells; test: Screening assay for Wnt activity (Sp5-Luc reporter gene assay); conditions: Homo sapiens; for EC50: SW480; for inhibition at 10 µM: SW480, read-out: percent inhibition at 10 μM
Description: The screening assay for Wnt activity is described as follows.
SW480 colon carcinoma cells were transduced with a lentiviral vector expressing luciferase with a human Sp5 promoter consisting of a sequence of eight TCF/LEF binding sites. […] These stably transduced SW480 cells were expanded in cell culture and used for all further screening activities. Each compound was dissolved in DMSO as a 10 mM stock and used to prepare compound source plates. Serial dilution (1:3, 10-point dose-response curves starting from 10 μM) and compound transfer was performed using the ECHO 550 (Labcyte, Sunnyvale, Calif.) into 384-well white solid bottom assay plates (Greiner Bio-One) with appropriate DMSO backfill for a final DMSO concentration of 0.1%. […] Following incubation, 15 μl of BriteLite Plus luminescence reagent (Perkin Elmer) was added to each well of the 384-well assay plates. The plates were placed on an orbital shaker for 2 min and then luminescence was quantified using the Envision (Perkin Elmer) plate reader.

[6] = target: DYRK1A kinase (Homo sapiens, UniProt Q13627); test: DYRK1A kinase activity (Ser/Thr 18 peptide Z-lyte FRET assay); assay type: biochemical; conditions: recombinant DYRK1A, 30 μM ATP, one hour at room temperature;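 also: kinase activity read as coumarin/fluorescein emission ratio after development step, with unphosphorylated and phosphorylated peptide forms setting 0% and 100% controls, values from dose-response curves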
[7] = tested on: SW480 colon carcinoma cells; test: Cell viability assay (CellTiter-Glo); conditions: Homo sapiens; for EC50: SW480, 96 h; for inhibition at 10 µM: SW480, read-out: percent inhibition at 10 μM
[8] = recombinant kinase, 46 μM ATP, one hour at room temperature, read-out: EC50

Sequence of GSK3β kinase (P49841 whole entry): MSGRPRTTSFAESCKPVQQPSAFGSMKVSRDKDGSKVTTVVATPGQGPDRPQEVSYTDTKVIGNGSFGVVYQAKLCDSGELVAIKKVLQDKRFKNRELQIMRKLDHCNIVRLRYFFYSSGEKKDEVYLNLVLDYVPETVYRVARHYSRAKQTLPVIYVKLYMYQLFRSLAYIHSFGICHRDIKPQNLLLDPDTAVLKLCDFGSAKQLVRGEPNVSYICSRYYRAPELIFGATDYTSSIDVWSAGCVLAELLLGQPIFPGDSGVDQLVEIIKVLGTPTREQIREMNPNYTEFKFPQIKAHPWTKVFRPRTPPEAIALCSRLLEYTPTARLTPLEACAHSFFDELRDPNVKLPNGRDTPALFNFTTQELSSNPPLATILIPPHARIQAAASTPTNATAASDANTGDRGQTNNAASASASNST

| Compound | EC50 [2] [nM] | EC50 ([3]; read-out: EC50) [nM] | EC50 [4, 8] [nM] | EC50 [5] [nM] | EC50 [6] [nM] | EC50 [7] [nM] | EC50 [3] [nM] | EC50 [4] [nM] | EC50 [1] [nM] | inhibition at 10 µM [2] [%] | inhibition at 10 µM [5] [%] | inhibition at 10 µM [7] [%] | inhibition at 10 µM [1] [%] |
| --- | --- | --- | --- | --- | --- | --- | --- | --- | --- | --- | --- | --- | --- |
| CN1CCC(Oc2cccc(C(=O)Nc3ncc4ccc(-c5cnco5)cc4n3)c2)CC1 [Compound 1497, 3-((1-Methylpiperidin-4-yl)oxy)-N-(7-(oxazol-5-yl)quinazolin-2-yl)benzamide] | > 10000 | 334 | > 10000 | > 10000 | 30 | > 10000 |  |  | 2430 | 4.8 | 41.7 | 23.7 |  |
| O=C(Nc1ncc2ccc(-c3cncs3)cc2n1)[C@H]1CC[C@H](CN2CC(F)C2)CC1 [Compound 1519, trans-4-((3-fluoroazetidin-1-yl)methyl)-N-(7-(thiazol-5-yl)quinazolin-2-yl)cyclohexane-1-carboxamide] | > 10000 | 69 | 772 | 2280 | 11 | > 10000 |  |  | 2400 | 2.9 |  | 17.1 |  |
| O=C(Nc1ncc2ccc(-c3cncs3)cc2n1)C1CCN(C2COC2)CC1 [Compound 1523, 1-(Oxetan-3-yl)-N-(7-(thiazol-5-yl)quinazolin-2-yl)piperidine-4-carboxamide] | > 10000 | 1800 | 1380 | > 10000 | 47 | > 10000 |  |  | > 10000 | 6.2 | 13.7 | 15.1 | 24.9 |
| CN1CCN(c2cc(C(=O)Nc3ncc4ccc(-c5cnc(N)s5)cc4n3)ccn2)CC1 [Compound 1589, N-(7-(2-aminothiazol-5-yl)quinazolin-2-yl)-2-(4-methylpiperazin-1-yl)isonicotinamide] | 2880 | 221 | 9990 | 184 | 5 | 331 |  |  | 911 |  |  |  |  |
| Nc1cncc(-c2ccc3cnc(NC(=O)c4ccc(OC5CCNCC5)cc4)nc3c2)c1 [Compound 1710, N-(7-(5-Aminopyridin-3-yl)quinazolin-2-yl)-4-(piperidin-4-yloxy)benzamide] | > 10000 | 5500 | 8040 | 3380 | 2 | > 10000 |  |  | > 10000 | 7.2 |  | 39.6 | 10.4 |
| CN1CCC(n2cc(C(=O)Nc3ncc4ccc(-c5cncc6[nH]ccc56)cc4n3)cn2)CC1 [Compound 1802, N-(7-(1H-Pyrrolo[2,3-c]pyridin-4-yl)quinazolin-2-yl)-1-(1-methylpiperidin-4-yl)-1H-pyrazole-4-carboxamide] | > 10000 | 4400 | > 10000 | 1400 | 7 | 1370 |  |  | > 10000 | 47.2 |  |  | 47.6 |
| CC(C)n1cc(C(=O)Nc2ncc3ccc(-c4cncc(NC5CCN(C)CC5)n4)cc3n2)cn1 [Compound 1813, 1-Isopropyl-N-(7-(6-((1-methylpiperidin-4-yl)amino)pyrazin-2-yl)quinazolin-2-yl)-1H-pyrazole-4-carboxamide] | > 10000 | 952 | > 10000 | 396 | 2 | 1000 |  |  | 5820 | 42 |  |  |  |
| CN(CC(=O)Nc1cc2cc(-c3cnn(C)c3)cnc2cn1)C1CCC1 [Compound 2776, 2-(Cyclobutyl(methyl)amino)-N-(3-(1-methyl-1H-pyrazol-4-yl)-1,7-naphthyridin-6-yl)acetamide] | > 10000 | 1000 | > 10000 | 836 | 56 | > 10000 |  |  | > 10000 | 10.4 |  | 8.1 | 39 |
| Cn1cc(-c2cnc3cnc(NC(=O)C4CCN(S(C)(=O)=O)CC4)cc3c2)cn1 [Compound 2792, N-(3-(1-Methyl-1H-pyrazol-4-yl)-1,7-naphthyridin-6-yl)-1-(methylsulfonyl) piperidine-4-carboxamide] | > 10000 | 357 | 1150 | > 10000 | 12 | > 10000 |  |  | > 10000 | 4 | 38.1 | 29 | 44.8 |

The next lines start with results.

| EC50 [2] [nM] | EC50 ([3]; read-out: EC50) [nM] | EC50 [4, 8] [nM] | EC50 [5] [nM] | EC50 [6] [nM] | EC50 [7] [nM] | EC50 [3] [nM] | EC50 [4] [nM] | Compound | EC50 [1] [nM] | inhibition at 10 µM [2] [%] | inhibition at 10 µM [5] [%] | inhibition at 10 µM [7] [%] | inhibition at 10 µM [1] [%] |
| --- | --- | --- | --- | --- | --- | --- | --- | --- | --- | --- | --- | --- | --- |
| > 10000 | 6800 | 453 | > 10000 | 2 | > 10000 |  |  | Cn1cncc1-c1ccc2cnc(NC(=O)c3ccc4c(c3)CNC4)nc2c1 [Compound 1383, N-(7-(1-Methyl-1H-imidazol-5-yl)quinazolin-2-yl)isoindoline-5-carboxamide] | 3290 | 3.1 | 15.9 | 26.1 |  |
| > 10000 | 605 | 952 | 617 | 56 | > 10000 |  |  | Cc1ncc(-c2ccc3cnc(NC(=O)[C@H]4CC[C@H](CO)CC4)nc3c2)o1 [Compound 1447, trans-4-(Hydroxymethyl)-N-(7-(2-methyloxazol-5-yl)quinazolin-2-yl)cyclohexane-1-carboxamide] | > 10000 | 0 |  | 8.5 | 35.5 |
| > 10000 |  |  | 1140 | 27 | 1560 | 1000 | > 10000 | CN1CCN(c2cc(C(=O)Nc3ncc4ccc(-c5ccc(N)nc5)cc4n3)ccn2)CC1 [Compound 1713, N-(7-(6-Aminopyridin-3-yl)quinazolin-2-yl)-2-(4-methylpiperazin-1-yl)isonicotinamide] | 5160 | 5.7 |  |  |  |
| > 10000 | 5 | 995 | 88 | 1 | 95 |  |  | CN1CC=C(c2cc(C(=O)Nc3ncc4ccc(-c5cncc(NC(C)(C)C)n5)cc4n3)ccn2)CC1 [Compound 1773, N-(7-(6-(tert-Butylamino)pyrazin-2-yl)quinazolin-2-yl)-1′-methyl-1′,2′,3′,6′-tetrahydro-[2,4′-bipyridine]-4-carboxamide] | 163 | 40.7 |  |  |  |
| > 10000 | 6800 | 536 | > 10000 | 7 | > 10000 |  |  | O=C(Nc1ncc2ccc(-c3cncc(NC4CCNCC4)n3)cc2n1)C1CCOCC1 [Compound 1783, N-(7-(6-(Piperidin-4-ylamino)pyrazin-2-yl)quinazolin-2-yl)tetrahydro-2H-pyran-4-carboxamide] | > 10000 | 6.1 | 14.4 | 38.8 | 53.7 |
| > 10000 | 896 | 2520 | > 10000 | 34 | > 10000 |  |  | C[C@H]1CCCN1CC(=O)Nc1cc2cc(-c3cnn(C)c3)cnc2cn1 [Compound 2767, (S)—N-(3-(1-Methyl-1H-pyrazol-4-yl)-1,7-naphthyridin-6-yl)-2-(2-methylpyrrolidin-1-yl)acetamide] | > 10000 | 0 | 20.7 | 37 | 13.8 |
